From patent publication EP4725507A1, “POLYPEPTIDE CONJUGATE, PHARMACEUTICAL COMPOSITION CONTAINING POLYPEPTIDE CONJUGATE AND USE THEREOF” (Nanjing Anji Biotechnology Co., Ltd., priority 2023, dated 2025)

Test system: non-small cell lung cancer A549 xenograft tumors
Assay: In vivo tumor-inhibitory activity of DOC-AI, A549 xenograft
Parameters: species or system BALB/c nude mice
Conditions: 4 days on, 3 days off until day 21
Procedure: Non-small cell lung cancer A549 cells and human gastric cancer MKN-45 cells were preserved in F12-K medium containing 10% fetal bovine serum and 1% penicillin + streptomycin, and incubated at 37°C with 5% CO2 and 95% humidity. The aforementioned cells were cultured in T175 flasks with an experimental cell density of 80%. The aforementioned cell lines were mycoplasma-negative. Both A549 cells and MKN-45 cells were provided by Nanjing Anji Biotechnology Co., Ltd.
Non-small cell lung cancer A549 cells in the vigorous growth stage were taken and inoculated subcutaneously into the right axilla of BALB/c nude mice (Nanjing Zhonghua Biotechnology Co., Ltd.) under sterile conditions, with a cell inoculation amount of 1×10^7. The diameter of transplanted tumors in nude mice was measured with a vernier caliper. When the tumors grew to approximately 50 mm^3, 30 tumor-bearing nude mice with good growth status and relatively uniform tumor size were selected and divided into 5 groups, with 6 mice in each group. The administration frequency was continuous administration for 4 days followed by an interval of 3 days, and this cycle was repeated until day 21. The anti-tumor effect in the nude mice was dynamically observed by measuring the tumor diameter. The tumor diameter was measured every other day, and the body weight of the nude mice was weighed simultaneously during the measurement of the tumor diameter. After 21 days of administration, the nude mice were euthanized, the tumor inhibition rate (%) was calculated, and the tumor masses were peeled off and weighed. Table 2 Detection of In Vivo Tumor-Inhibitory Activity of DOC-AI

## CC(=O)O[C@@]12CO[C@@H]1C[C@H](O)[C@@]1(C)C(=O)[C@H](O)C3=C(C)[C@@H](OC(=O)[C@H](OC(=O)CCC(=O)N[C@@H](CCCNC(=N)N)C(=O)N[C@@H](CO)C(=O)N4CCC[C@H]4C(=O)N[C@@H](Cc4ccc(O)cc4)C(=O)N[C@@H](C)C(=O)N[C@@H](CC(N)=O)C(=O)N[C@@H](CO)C(=O)O)[C@@H](NC(=O)OC(C)(C)C)c4ccccc4)C[C@@](O)([C@@H](OC(=O)c4ccccc4)[C@H]21)C3(C)C [DOC-AI]
6.20 µmol/Kg
  Final Tumor Volume: 73.75±23.01
  Tumor Inhibition Rate: 90.40%
  Tumor Weight: 81.00 ± 40.81 mg
12.40 µmol/Kg
  Final Tumor Volume: 31.31±22.73
  Tumor Inhibition Rate: 95.33%
  Tumor Weight: 51.83 ± 31.36 mg
24.80 µmol/Kg
  Final Tumor Volume: 20.30±20.80
  Tumor Inhibition Rate: 97.33%
  Tumor Weight: 20.53 ± 20.80 mg
